Measured values reported in patent publication US7892549B2, “Treatment with anti-ErbB2 antibodies” (Genentech, Inc., priority 1997, dated 2011).

Tested on: metastatic breast cancer with overexpression of the ErbB2 (HER2) oncogene
Assay: Randomized clinical study of chemotherapy with or without HERCEPTIN in patients
Assay type: in vivo, human
Experimental: Beginning on day 7, patients received weekly administration of 2 mg/kg antibody (i.v.) over a 90-minute period.
The patients received one of two chemotherapy regiments for a minimum of six cycles, provided their disease was not progressing: a) cyclophosphamide and doxorubicin or epirubicin (AC), if patients have not received anthracycline therapy in the adjuvant setting, or b) paclitaxel (T, TAXOL®), if patients have received any anthracycline therapy in the adjuvant setting. […] Subsequent doses of the antibody were given immediately before chemotherapy administration, if the initial dose of the antibody was well tolerated. If the first dose of the antibody was not well tolerated, subsequent infusions continued to precede chemotherapy administration by 24 hours. Patients were permitted to continue receiving chemotherapy beyond six cycles if, in the opinion of the treating physician, they were continuing to receive treatment benefit.
Cyclophosphamide (600 mg/m^2) was given either by iv push over a minimum period of 3 minutes or by infusion over a maximum period of 2 hours. […]
Time to disease progression (TTP) was calculated from the beginning of therapy to progression. Confidence limits for response rates were calculated using the exact method for a single proportion.

## CC(=O)O[C@H]1C(=O)[C@@]2(C)[C@H]([C@H](OC(=O)c3ccccc3)[C@]3(O)C[C@H](OC(=O)[C@H](O)[C@@H](NC(=O)c4ccccc4)c4ccccc4)C(C)=C1C3(C)C)[C@]1(OC(C)=O)CO[C@@H]1C[C@@H]2O [T, paclitaxel]
Grade ¾
  syndrome of myocardial dysfunction similar to that observed with anthracyclines: 0%
Median follow-up 10.5 months
  AE(%), overall severe adverse events: 59%
